Reference: patent US9301529B2, “Polysubstituted pyridyl pyrazolecarboxamide and preparation method and use thereof” (ZHAOQING ZHENGE BIOLOGICAL TECHNOLOGY CO., LTD, priority 2014, dated 2016)

What was measured:
Helicoverpa armigera = experiment: Determination of activity against Helicoverpa armigera, leaf dipping method (IRAC); assay type: in vivo; details: for insecticidal activity (mortality): leaf dipping, Brassica oleracea leaf, 72 hour
Description: Determination of Activity Against Helicoverpa armigera
Leaf dipping method (proposed by Insecticide Resistance Action Committee, IRAC) was adopted: a leaf of Brassica oleracea was clamped by a tweezer and dipped into an insecticide solution having a certain concentration to be tested for 3 to 5 seconds, the excessive solution was threw off, one leaf at each time, three leaves for each sample. The leaves were placed onto a treatment paper according to sequence of sample marking and air-dried naturally, then put into a marked straight tube of 10 cm length, […] in, the tube opening was covered by a gauze, and placed into a standard treatment chamber, the result was checked and the mortality was calculated at 72 hour.
(§1) Some of the compounds in Example 1 were used to conduct the test, and a control compound was selected to conduct an indoor insecticidal activity data (%, concentration unit: ppm) determination test under the same condition, the results of the test was shown in Table 2.

Ostrinia furnacalis = experiment: Determination of activity against Ostrinia furnacalis, leaf dipping method; assay type: in vivo; details: for insecticidal activity (mortality): leaf dipping, Brassica oleracea leaf, 72 hours
Description: Determination of Activity Against Ostrinia furnacalis
Leaf dipping method was adopted, a leaf of Brassica oleracea was clamped by a tweezer, and dipped in insecticide solution having a certain concentration for 3 to 5 seconds, the excessive solution was threw off, one leaf at each time, and three leaves for each sample. The leaves were placed onto a treatment paper according to the sequence of sample marking and air-dried naturally, then put into a marked straight tube of 10 cm length, and 30 Ostrinia furnacalis larvae being […] were place in, the tube opening was covered by a gauze, and placed in a standard treatment chamber, the result was checked and the mortality was calculated at 72 hours.
as §1

[1] = Helicoverpa armigera, in Brassica oleracea, foliar, 72 h, read-out: insecticidal activity (mortality)
[2] = Ostrinia furnacalis, in Brassica oleracea, foliar, 72 h, read-out: insecticidal activity (mortality)

CC(C)(C)NC(=O)c1cc(Cl)cc(Cl)c1NC(=O)c1cc(Br)nn1-c1ncccc1Cl [Compound I-24, 1-(3-chloropyridine-2-yl)-3-bromo-N-(2,4-dichloro-6-tert-butylaminocarbonyl)phenyl-1H-pyrazole-5-formamide]
insecticidal activity (mortality) (Helicoverpa armigera; 0.016 ppm): 60%
insecticidal activity (mortality) (Helicoverpa armigera; 0.031 ppm): 80%
insecticidal activity (mortality) (Helicoverpa armigera; 0.0625 ppm): 100%
insecticidal activity (mortality) (Helicoverpa armigera; 0.125 ppm): 100%
insecticidal activity (mortality) (Helicoverpa armigera; 0.25 ppm): 100%
insecticidal activity (mortality) (Helicoverpa armigera; 0.5 ppm): 100%
insecticidal activity (mortality) (Ostrinia furnacalis; 0.031 ppm): 100%
insecticidal activity (mortality) (Ostrinia furnacalis; 0.0625 ppm): 100%
insecticidal activity (mortality) (Ostrinia furnacalis; 0.125 ppm): 100%
insecticidal activity (mortality) (Ostrinia furnacalis; 0.25 ppm): 100%
insecticidal activity (mortality) (Ostrinia furnacalis; 0.5 ppm): 100%

CNC(=O)c1cc(Cl)cc(C)c1NC(=O)c1cc(Br)nn1-c1ncccc1Cl [KC]
mortality at 0.016 ppm (Helicoverpa armigera; [1]): 0%
mortality at 0.031 ppm (Helicoverpa armigera; [1]): 0%
mortality at 0.0625 ppm (Helicoverpa armigera; [1]): 30%
mortality at 0.125 ppm (Helicoverpa armigera; [1]): 55%
mortality at 0.25 ppm (Helicoverpa armigera; [1]): 70%
mortality at 0.5 ppm (Helicoverpa armigera; [1]): 85%
mortality at 0.016 ppm (Ostrinia furnacalis; [2]): 0%
mortality at 0.031 ppm (Ostrinia furnacalis; [2]): 30%
mortality at 0.0625 ppm (Ostrinia furnacalis; [2]): 55%
mortality at 0.125 ppm (Ostrinia furnacalis; [2]): 75%
mortality at 0.25 ppm (Ostrinia furnacalis; [2]): 100%
mortality at 0.5 ppm (Ostrinia furnacalis; [2]): 100%
